Measured values published in the NIST ThermoML archive (doi:10.1021/acs.jced.8b00067).
Values joined by “and” are separate entries in the source; they are usually repeats but may differ in a detail not shown here. Equal entries are not always repeated.

Key:
[1] = xn = mol fraction of the nth substance listed; conditions: 101.3 kPa, Liquid, Vibrating tube method
[2] = 101.3 kPa, Liquid, Vibrating tube method

ClCCCl [1,2-dichloroethane] + C1COCCO1
mass density [kg/m3], [1]
Conditions | 288.15 K | 298.15 K | 308.15 K | 318.15 K
x2 = 0 | 1260.35 | 1245.75 | 1231.16 | 1216.56
x2 = 0.05 | 1247.73 | 1233.53 | 1219.2 | 1204.74
x2 = 0.15 | 1223.15 | 1209.44 | 1195.6 | 1181.63
x2 = 0.25 | 1199.18 | 1185.91 | 1172.52 | 1159.01
x2 = 0.35 | 1175.98 | 1163.09 | 1150.11 | 1137.01
x2 = 0.45 | 1153.2 | 1140.69 | 1128.08 | 1115.36
x2 = 0.5 | 1142.13 | 1129.79 | 1117.34 | 1104.79
x2 = 0.55 | 1131.22 | 1119.02 | 1106.74 | 1094.34
x2 = 0.65 | 1109.63 | 1097.72 | 1085.72 | 1073.62
x2 = 0.75 | 1088.81 | 1077.13 | 1065.38 | 1053.55
x2 = 0.85 | 1068.59 | 1057.12 | 1045.59 | 1033.98
x2 = 0.95 | 1048.8 | 1037.49 | 1026.13 | 1014.72

C1COCCO1 [1,4-dioxane] + ClCCCl
[1], x1 = 1
Conditions | mass density [kg/m3]
288.15 K | 1039.12
298.15 K | 1027.84
308.15 K | 1016.57
318.15 K | 1005.29

ClCCCl [1,2-dichloroethane]
[2]
Conditions | mass density
288.15 K | 1260.35 kg/m3
298.15 K | 1245.75 kg/m3 and 1245.76 kg/m3
308.15 K | 1231.16 kg/m3
318.15 K | 1216.56 kg/m3

CC(C)O [propan-2-ol] + ClCCCl
[1], x1 = 1
Conditions | mass density [kg/m3]
288.15 K | 789.68
298.15 K | 781.08
308.15 K | 772.48
318.15 K | 763.88

CC(C)O [propan-2-ol] + C1COCCO1
[1], x2 = 0
Conditions | mass density [kg/m3]
288.15 K | 789.68
298.15 K | 781.08
308.15 K | 772.48
318.15 K | 763.88

CCCO [propan-1-ol] + C1COCCO1
[1], x2 = 0
Conditions | mass density [kg/m3]
288.15 K | 807.86
298.15 K | 799.78
308.15 K | 791.71
318.15 K | 783.64

ClCCCl [1,2-dichloroethane] + CCCO
mass density, [1]
Conditions | 288.15 K | 298.15 K | 308.15 K | 318.15 K
x2 = 0 | 1260.35 kg/m3 | 1245.75 kg/m3 | 1231.16 kg/m3 | 1216.56 kg/m3
x2 = 0.026 | 1248.39 kg/m3 | 1234.01 kg/m3 | 1219.5 kg/m3 | 1204.86 kg/m3
x2 = 0.05 | 1237.53 kg/m3 and 1237.37 kg/m3 | 1223.22 kg/m3 and 1223.08 kg/m3 | 1208.79 kg/m3 and 1208.64 kg/m3 | 1194.22 kg/m3 and 1194.08 kg/m3
x2 = 0.1 | 1215.38 kg/m3 | 1201.26 kg/m3 | 1187.01 kg/m3 | 1172.6 kg/m3
x2 = 0.122 | 1205.69 kg/m3 | 1191.67 kg/m3 | 1177.5 kg/m3 | 1163.18 kg/m3
x2 = 0.149 | 1193.33 kg/m3 | 1179.47 kg/m3 | 1165.44 kg/m3 | 1151.24 kg/m3
x2 = 0.25 | 1149.08 kg/m3 | 1135.78 kg/m3 | 1122.28 kg/m3 | 1108.59 kg/m3
x2 = 0.35 | 1104.87 kg/m3 | 1092.18 kg/m3 | 1079.29 kg/m3 | 1066.19 kg/m3
x2 = 0.45 | 1060.3 kg/m3 | 1048.27 kg/m3 | 1036.04 kg/m3 | 1023.57 kg/m3
x2 = 0.55 | 1015.43 kg/m3 | 1004.09 kg/m3 | 992.55 kg/m3 | 980.78 kg/m3
x2 = 0.645 | 972.3 kg/m3 | 961.66 kg/m3 | 950.81 kg/m3 | 939.73 kg/m3
x2 = 0.75 | 924.58 kg/m3 | 914.71 kg/m3 | 904.65 kg/m3 | 894.38 kg/m3
x2 = 0.85 | 878.59 kg/m3 | 869.49 kg/m3 | 860.21 kg/m3 | 850.73 kg/m3
x2 = 0.899 | 855.66 kg/m3 | 846.93 kg/m3 | 838.05 kg/m3 | 828.97 kg/m3
x2 = 0.95 | 831.69 kg/m3 | 823.36 kg/m3 | 814.89 kg/m3 | 806.24 kg/m3
x2 = 0.974 | 820.39 kg/m3 | 812.24 kg/m3 | 803.95 kg/m3 | 795.49 kg/m3
x2 = 0.975 | 819.73 kg/m3 | 811.6 kg/m3 | 803.33 kg/m3 | 794.89 kg/m3

C1COCCO1 [1,4-dioxane] + CCCO
mass density, [1]
Conditions | 288.15 K | 298.15 K | 308.15 K | 318.15 K
x1 = 0.05 | 820.78 kg/m3 | 812.62 kg/m3 | 804.33 kg/m3 | 795.88 kg/m3
x1 = 0.15 | 846.12 kg/m3 | 837.54 kg/m3 | 828.82 kg/m3 | 819.95 kg/m3
x1 = 0.249 | 870.65 kg/m3 | 861.62 kg/m3 | 852.49 kg/m3 | 843.22 kg/m3
x1 = 0.35 | 894.72 kg/m3 and 894.75 kg/m3 | 885.38 kg/m3 and 885.41 kg/m3 | 875.91 kg/m3 and 875.94 kg/m3 | 866.3 kg/m3 and 866.33 kg/m3
x1 = 0.45 | 918.23 kg/m3 | 908.54 kg/m3 | 898.73 kg/m3 | 888.78 kg/m3
x1 = 0.496 | 928.74 kg/m3 | 918.89 kg/m3 | 908.94 kg/m3 | 898.85 kg/m3
x1 = 0.55 | 941.07 kg/m3 and 941.11 kg/m3 | 931.06 kg/m3 and 931.09 kg/m3 | 920.95 kg/m3 and 920.97 kg/m3 | 910.71 kg/m3 and 910.73 kg/m3
x1 = 0.65 | 963.51 kg/m3 | 953.2 kg/m3 | 942.79 kg/m3 | 932.28 kg/m3
x1 = 0.75 | 985.54 kg/m3 and 985.58 kg/m3 | 974.94 kg/m3 and 974.98 kg/m3 | 964.26 kg/m3 and 964.29 kg/m3 | 953.5 kg/m3 and 953.51 kg/m3
x1 = 0.849 | 1006.97 kg/m3 | 996.12 kg/m3 | 985.2 kg/m3 | 974.19 kg/m3
x1 = 0.948 | 1028.13 kg/m3 | 1017.05 kg/m3 | 1005.9 kg/m3 | 994.68 kg/m3
x1 = 0.95 | 1028.45 kg/m3 | 1017.36 kg/m3 | 1006.21 kg/m3 | 995 kg/m3
x1 = 1 | 1039.12 kg/m3 | 1027.84 kg/m3 | 1016.57 kg/m3 | 1005.29 kg/m3

CC(C)O [propan-2-ol]
[2]
Conditions | mass density [kg/m3]
288.15 K | 789.68
298.15 K | 781.08
308.15 K | 772.48
318.15 K | 763.88

C1COCCO1 [1,4-dioxane]
[2]
Conditions | mass density [kg/m3]
288.15 K | 1039.12
298.15 K | 1027.84
308.15 K | 1016.57
318.15 K | 1005.29

ClCCCl [1,2-dichloroethane] + CC(C)O
mass density [kg/m3], [1]
Conditions | 288.15 K | 298.15 K | 308.15 K | 318.15 K
x2 = 0 | 1260.35 | 1245.75 | 1231.16 | 1216.56
x2 = 0.05 | 1235.77 | 1221.42 | 1206.94 | 1192.32
x2 = 0.15 | 1188.35 | 1174.26 | 1160 | 1145.58
x2 = 0.25 | 1141.45 | 1127.77 | 1113.89 | 1099.81
x2 = 0.35 | 1094.84 | 1081.66 | 1068.25 | 1054.61
x2 = 0.45 | 1048.69 | 1036.08 | 1023.22 | 1010.09
x2 = 0.5 | 1025.43 | 1013.12 | 1000.56 | 987.72
x2 = 0.55 | 1001.94 | 989.96 | 977.71 | 965.17
x2 = 0.65 | 955.61 | 944.31 | 932.73 | 920.85
x2 = 0.75 | 908.94 | 898.38 | 887.54 | 876.36
x2 = 0.849 | 862.18 | 852.45 | 842.41 | 832.03
x2 = 0.949 | 814.66 | 805.84 | 796.72 | 787.26
x2 = 0.95 | 814.18 | 805.36 | 796.25 | 786.79

C1COCCO1 [1,4-dioxane] + CC(C)O
mass density [kg/m3], [1]
Conditions | 288.15 K | 298.15 K | 308.15 K | 318.15 K
x1 = 0.05 | 802.95 | 794.39 | 785.56 | 776.41
x1 = 0.15 | 829.25 | 820.23 | 810.98 | 801.46
x1 = 0.25 | 855.23 | 845.83 | 836.22 | 826.38
x1 = 0.35 | 880.71 | 870.97 | 861.05 | 850.93
x1 = 0.449 | 905.45 | 895.43 | 885.24 | 874.87
x1 = 0.5 | 918.21 | 908.04 | 897.73 | 887.25
x1 = 0.55 | 930.47 | 920.18 | 909.74 | 899.16
x1 = 0.651 | 955.14 | 944.61 | 933.97 | 923.2
x1 = 0.75 | 979.12 | 968.37 | 957.54 | 946.6
x1 = 0.85 | 1003.42 | 992.5 | 981.49 | 970.39
x1 = 0.95 | 1027.3 | 1016.17 | 1004.99 | 993.74
x1 = 1 | 1039.12 | 1027.84 | 1016.57 | 1005.29

CCCO [propan-1-ol] + ClCCCl
[1], x1 = 1
Conditions | mass density [kg/m3]
288.15 K | 807.86
298.15 K | 799.78
308.15 K | 791.71
318.15 K | 783.64

CCCO [propan-1-ol]
[2]
Conditions | mass density [kg/m3]
288.15 K | 807.86
298.15 K | 799.78
308.15 K | 791.71
318.15 K | 783.64
